SMILES strings stand for the structures. Like-named read-outs stand apart in the source and are kept apart here.

One test deals with T1, human OX2 receptors (Homo sapiens, UniProt O43614).
T1 sequence (O43614 1-444): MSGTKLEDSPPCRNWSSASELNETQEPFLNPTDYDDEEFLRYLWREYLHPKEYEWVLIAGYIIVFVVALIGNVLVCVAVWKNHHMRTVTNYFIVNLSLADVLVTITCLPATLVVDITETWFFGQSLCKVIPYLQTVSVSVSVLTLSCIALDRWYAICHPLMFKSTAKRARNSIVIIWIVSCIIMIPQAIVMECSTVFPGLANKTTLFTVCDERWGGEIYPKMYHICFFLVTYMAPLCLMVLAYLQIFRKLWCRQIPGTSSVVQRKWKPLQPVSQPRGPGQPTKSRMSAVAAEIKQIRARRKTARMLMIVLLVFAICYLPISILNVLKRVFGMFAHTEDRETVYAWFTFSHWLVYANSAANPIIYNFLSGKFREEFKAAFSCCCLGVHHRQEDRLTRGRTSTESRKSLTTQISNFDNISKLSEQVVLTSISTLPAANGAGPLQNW
Briefly: biochemical. Here is the method:
(§1) Briefly, the membranes were isolated by homogenizing cell pellet in 30 ml (w/v) 50 mM Tris buffer (pH 7.4) containing Roche Complete EDTA free protease tablets. […] All binding studies were conducted at a final volume of 200 μl. […] Then 300 μl of this solution was placed in column B on a Nunc polypropylene 96-well plate (Thermo Fisher Scientific, Inc., Rochester, NY). Serial dilutions were then made using a Biomek 2000 (Beckman Coulter, Inc., Fullerton, CA) from a starting concentration of 40 μM. […] All binding was terminated by rapid filtration using a TOMTEC 96-well cell harvester (Hamden, CT) through GF/A filters that had been presoaked with 0.3% polyethyleneimine. The filters were washed with 5.0 ml ice-cold 50 mM Tris buffer (pH 7.4) and air-dried overnight. […] Protein concentrations were measured using Coomassie Protein Plus Assay Reagent (Pierce, Rockford, IL) and serum albumin standards.

For another test, the target named is T2, rat OX2 receptors (Rattus norvegicus, UniProt P56719).
T2 sequence (P56719 1-460): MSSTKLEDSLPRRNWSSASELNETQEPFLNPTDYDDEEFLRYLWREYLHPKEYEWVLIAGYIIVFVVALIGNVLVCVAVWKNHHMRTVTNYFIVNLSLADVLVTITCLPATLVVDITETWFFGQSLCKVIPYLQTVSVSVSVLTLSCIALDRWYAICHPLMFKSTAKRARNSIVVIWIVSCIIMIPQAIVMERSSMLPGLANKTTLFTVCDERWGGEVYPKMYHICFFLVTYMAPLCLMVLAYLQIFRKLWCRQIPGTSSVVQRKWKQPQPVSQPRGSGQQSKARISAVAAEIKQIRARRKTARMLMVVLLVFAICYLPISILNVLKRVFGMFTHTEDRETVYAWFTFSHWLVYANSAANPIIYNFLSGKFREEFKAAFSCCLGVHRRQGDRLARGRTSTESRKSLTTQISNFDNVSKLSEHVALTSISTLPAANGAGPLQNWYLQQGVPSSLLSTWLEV
The test can be described thus: cell-based.

The target in the next test is T3, rat OX1 receptors (Rattus norvegicus, UniProt P56718).
T3 sequence (P56718 1-416): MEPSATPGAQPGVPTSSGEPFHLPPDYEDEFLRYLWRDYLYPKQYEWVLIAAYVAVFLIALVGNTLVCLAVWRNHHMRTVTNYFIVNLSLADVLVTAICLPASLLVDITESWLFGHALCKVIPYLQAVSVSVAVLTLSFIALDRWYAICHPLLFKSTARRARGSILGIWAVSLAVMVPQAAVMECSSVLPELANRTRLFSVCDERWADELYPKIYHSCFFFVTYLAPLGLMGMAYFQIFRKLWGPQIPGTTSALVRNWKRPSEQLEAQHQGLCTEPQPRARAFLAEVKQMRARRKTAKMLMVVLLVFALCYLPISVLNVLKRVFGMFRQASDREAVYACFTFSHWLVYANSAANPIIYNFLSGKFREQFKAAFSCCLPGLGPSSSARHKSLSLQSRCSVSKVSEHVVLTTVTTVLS
Briefly: cell-based.

Test [1] deals with T4, human OX1 receptors (Homo sapiens, UniProt O43613).
T4 sequence (O43613 1-425): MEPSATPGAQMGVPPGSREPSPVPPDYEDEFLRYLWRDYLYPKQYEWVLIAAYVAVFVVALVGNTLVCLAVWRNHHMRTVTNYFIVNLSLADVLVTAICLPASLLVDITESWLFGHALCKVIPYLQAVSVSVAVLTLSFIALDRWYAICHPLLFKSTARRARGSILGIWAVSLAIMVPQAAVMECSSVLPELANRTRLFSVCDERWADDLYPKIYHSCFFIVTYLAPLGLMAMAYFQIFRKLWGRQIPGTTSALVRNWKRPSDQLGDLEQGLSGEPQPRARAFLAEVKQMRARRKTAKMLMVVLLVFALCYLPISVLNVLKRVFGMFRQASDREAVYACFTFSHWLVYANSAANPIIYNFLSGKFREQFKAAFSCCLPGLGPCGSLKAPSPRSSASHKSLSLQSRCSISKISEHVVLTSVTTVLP
Briefly: Radioligand binding, [125I]-Orexin A displacement, HEK293 membranes. Details: expressed in transfected cells; membranes. To be noted: 90 min, mean ± s.e.m. (n). Here is the method:
as §1

The target in test [2] is T4, human OX1 receptors. Briefly: Intracellular calcium mobilization (FLIPR), antagonist mode vs EC70 orexin-A. The conditions noted are these: HEK293 cells, mean ± s.e.m. (n). In general terms: A change in cytosolic calcium serves as a functional read-out for many receptors and channels.
Procedure: (§2) Recombinant human OX1 and OX2 receptors were stably expressed in HEK293 cells, or rat recombinant OX1 and OX2 receptors stably expressed in AV12 cells, and assessed for intracellular calcium mobilization using Fluo-3 dye (Molecular Probes, Eugene, OR). […] It was further diluted to 8 mM in 2.5 mM probenecid loading buffer which was made as described below. The human cell line was grown in DMEM/F-12 (3:1) supplemented with 10% FBS (heat-inactivated), 20 mM HEPES, 1% Penn/Strep, and 4 μg/ml Blasticidin (35,000 cells/well). The rat cell line was grown in DMEM supplemented with 10% FBS (heat-inactivated), 20 mM HEPES, 1% Penn/Strep, 4 μg/ml Blasticidin, and 1 mM sodium pyruvate (60,000 cells/well). […] Finally, plates were read on a fluorescence imaging plate reader (FLIPR; Molecular Devices, LLC, Sunnyvale, CA) instrument with a 50 μl addition of antagonist; cells were placed in the dark at room temperature for an additional 15 min; then read on FLIPR instrument with a 100 μl addition of an EC70 concentration of orexin A (for a total volume of 200 μl). […] Kb-values were calculated based on 10-point dilution curves using ActivityBase templates (ID Business Solutions, Ltd., Guildford, Surrey, UK). […]

Procedure for rat OX1 receptors: as §2

For the compound `CNC(=O)[C@@H](c1ccccc1)N1CCc2cc(OC)c(OC)cc2[C@@H]1CCc1ccc(C(F)(F)F)cc1` [Almorexant (S)], on human OX2 receptors, the Ki (in general, the dissociation constant of the complex between target and ligand, obtained from inhibition or displacement) was determined as 6.9 ± 0.18 nM. Also, the Kb was determined as 4.4 ± 1.6 nM at rat OX2 receptors and 3.2 ± 0.7 nM on rat OX1 receptors.
In the case of `CNC(=O)[C@@H](c1ccccc1)N1CCc2cc(OC)c(OC)cc2[C@@H]1CCc1ccc(C(F)(F)F)cc1` [Almorexant (R)], the “Receptor binding affinity, Ki OX2” value on human OX2 receptors (HEK293 membranes, [125I]-orexin A, 90 min, mean ± s.e.m. (n)) was “inactive”. For the same compound, the Ki at human OX2 receptors (read-out: Receptor binding affinity, Ki OX2, HEK293 membranes, [125I]-orexin A, 90 min, mean ± s.e.m. (n)) was > 10000 nM. In addition, the “Receptor binding affinity, Ki OX1” value on human OX1 receptors [1] is “inactive”. The “Functional antagonist activity, Kb hOX1” value on human OX1 receptors [2] is “inactive”.

These data come from publication PMC3904085 (Frontiers in Neuroscience, 2014).
